{
  "source": "patent US20250268856A1",
  "about": "“Pain Relieving Method” (Animal Ethics Pty Ltd, priority 2019, published 2025)",
  "key": {"[1]": {"test": "Study 2: motor response scores to the procedure of castration", "format": "in vivo, piglets", "settings": "during the procedure (castration), versus placebo, topical to open wound", "procedure": "(§1) Study 2: A follow-up study confirmed efficacy of meloxicam analgesic effects when applied to piglets via topical wound application either alone or in combination with tetracaine 2%. Piglets were treated with placebo, meloxicam 0.1%, tetracaine 2% or a combination of tetracaine 2% and meloxicam 1%, otherwise formulated as above, and examined for clinical efficacy via documentation of motor response scores to a) the procedure of castration, and b) pre- and post-operative mechanical sensory testing of the wound site using Von-Frey filament testing."}, "[2]": {"test": "Study 2: post-operative mechanical sensory testing of the wound site using Von-Frey filament testing (motor response scores)", "format": "in vivo, piglets", "settings": "versus placebo", "procedure": "as §1"}, "[3]": {"test": "In-house trials of tetracaine applied directly to the open castration wound", "format": "in vivo, piglets", "settings": "applied to open castration wound 20 seconds prior to severing cordal tissues, 1 ml/kg of 2% or 5% solution", "source_text": "Tetracaine is a rapid onset surface anaesthetic, that is rapidly metabolised by plasma-esterases, such that may induce high potency local effects with minimal systemic effects. […] Topical wound application formulations were thus developed to examine the potential for systemic NSAID analgesic drug (meloxicam) delivery via topical wound application, applied alone, or combined with topical local anaesthetic (tetracaine) to the castration wound in piglets. Topical wound application formulations were developed containing meloxicam alone, tetracaine alone and combinations of meloxicam and tetracaine to examine systemic absorption and clinical effects."}, "[4]": {"test": "Study 1: porcine plasma profiles of tetracaine and meloxicam applied topically to the castration surgical site", "format": "in vivo", "procedure": "Dose Calculation, Preparation & Administration: Study animals were dosed according to the Treatment Regime outlined in Table 4 below. No preparation of any of the IVPs was performed other than inversion of each container 2-3 times prior to treatment.\nBlood Analysis: Blood samples were collected from allocated animals via anterior vena-caval puncture using 21G, 1.5″ needle attached to 10 mL syringes and transferred immediately into 5 mL lithium heparin blood tubes. Blood samples were processed for extraction of plasma on the day of collection, which for each sample was stored in duplicate, frozen (˜−18° C.). Replicate 1 plasma samples were forwarded frozen to a laboratory for tetracaine and meloxicam analyses after the conclusion of the animal phase.\nStudy animals were dosed according to the application rates detailed in Table 4. No preparation of any of the IVPs was required prior to dosing.\nCastration was performed using a sterile scalpel as per the following process: • 1. Piglet to be gently restrained (for a minimum of 30 seconds prior to incision) in Kerble piglet cradle in order to expose the ano-genital region of the piglet. • 2. Only when piglet is settled, incise scrotum (including tunica) with one single transverse incision to expose and exteriorise each testis; • 3. Immediately apply treatment (40% total dose to each side) to coat the exposed spermatic cord and the cut skin edge. […] Wait 30 seconds; • 5. The testis may then be removed by severing the cord as per routine procedure. Remove each testis as per normal procedure. • 6. Apply the remaining 20% of the total dose evenly of the surface of the surgical wound."}, "[5]": {"settings": "male, pig, in vivo"}},
  "note": "“And” between values parts separate entries of the source, which are not always exact repeats. Equal entries are not always repeated.",
  "data": [
    {"compound": "CCCCNc1ccc(C(=O)OCCN(C)C)cc1", "note": "[Tetracaine]", "values": [
      {"measurement": "Motor response scores", "setting": "[1]", "value": "significant reduction"},
      {"measurement": "Motor response scores", "setting": "[2]; 1 minute following the procedure", "value": "significant reduction"},
      {"measurement": "Motor response scores", "setting": "[2]; 1 hour following the procedure", "value": "anaesthetic effects were still evident"},
      {"measurement": "Motor response scores", "setting": "[2]; 12 hours following the procedure", "value": "rebound hyperaesthesia"},
      {"measurement": "Pain during castration and in the first minutes and 1-2 hours following", "setting": "[3]", "value": "effective to ameliorate pain"},
      {"measurement": "Time of peak plasma tetracaine level", "setting": "[4]; male, pig, in vivo", "value": 1, "unit": "h"}
    ]},
    {"compound": "CCCCN1CCCCC1C(=O)Nc1c(C)cccc1C", "note": "(stereo not drawn) [bupivacaine]", "values": [
      {"measurement": "Period plasma levels remained at those levels", "setting": "[5]", "value": 24, "unit": "h"}
    ]},
    {"compound": "Cc1cnc(NC(=O)C2=C(O)c3ccccc3S(=O)(=O)N2C)s1", "note": "[Meloxicam]", "values": [
      {"measurement": "Meloxicam concentration in porcine plasma", "setting": "[4]; 15 min post-treatment, individual piglets, topical to castration wound", "value": "144.8 ng/mL and 119.8 ng/mL and 81.8 ng/mL and 88.2 ng/mL"},
      {"measurement": "Meloxicam concentration in porcine plasma", "setting": "[4]; 30 min post-treatment, individual piglets, topical to castration wound", "value": "166.0 ng/mL and 94.6 ng/mL and 101.3 ng/mL and 104.8 ng/mL"},
      {"measurement": "Meloxicam concentration in porcine plasma", "setting": "[4]; 1 hr post-treatment, individual piglets, topical to castration wound", "value": "102.9 ng/mL and 118.0 ng/mL"},
      {"measurement": "Meloxicam concentration in porcine plasma", "setting": "[4]; 2 hr post-treatment, individual piglets, topical to castration wound", "value": "126.7 ng/mL and 238.9 ng/mL"},
      {"measurement": "Meloxicam concentration in porcine plasma", "setting": "[4]; 4 hr post-treatment, individual piglets, topical to castration wound", "value": "100.9 ng/mL and 458.7 ng/mL and 63.3 ng/mL and 230.0 ng/mL and 244.6 ng/mL and 113.2 ng/mL"},
      {"measurement": "Sustained plasma levels of meloxicam", "setting": "[4]; group level (FIG. 4)", "value": "100 to 200", "unit": "ng/mL"},
      {"measurement": "concentration at 15 min", "setting": "[4]; male, pig, plasma, topical, 15 min post-treatment, individual piglets, topical to castration wound", "value": 86.9, "unit": "ng/mL"},
      {"measurement": "concentration at 30 min", "setting": "[4]; male, pig, plasma, topical, 30 min post-treatment, individual piglets, topical to castration wound", "value": 109, "unit": "ng/mL"},
      {"measurement": "concentration at 1 hr", "setting": "[4]; male, pig, plasma, topical, 1 hr post-treatment, individual piglets, topical to castration wound", "value": 190, "unit": "ng/mL"},
      {"measurement": "concentration at 2 hr", "setting": "[4]; male, pig, plasma, topical, 2 hr post-treatment, individual piglets, topical to castration wound", "value": 126, "unit": "ng/mL"},
      {"measurement": "Time of peak plasma meloxicam level", "setting": "[4]; post-treatment, group level (FIGS. 4, 5)", "value": 4, "unit": "h"}
    ]}
  ]
}
